Measurements published in US8541588B2, “Sulfonamide derivatives” (Pfizer Limited, priority 2009, dated 2013).

What follows are molecules tested against T1, Nav1.7 (or SCN9A) channel; HEK cells stably transfected with hSCN9A (Homo sapiens, UniProt Q15858) (assay: Nav1.7 block, PatchXpress 7000 automated whole-cell voltage clamp, estimated IC50 (EIC50)). Details: estimated IC50; hSCN9A HEK cells, PatchXpress platform; Examples 815-1040.
T1 construct: expressed in transfected cells
Type: cell-based

T1 sequence (Q15858 whole entry): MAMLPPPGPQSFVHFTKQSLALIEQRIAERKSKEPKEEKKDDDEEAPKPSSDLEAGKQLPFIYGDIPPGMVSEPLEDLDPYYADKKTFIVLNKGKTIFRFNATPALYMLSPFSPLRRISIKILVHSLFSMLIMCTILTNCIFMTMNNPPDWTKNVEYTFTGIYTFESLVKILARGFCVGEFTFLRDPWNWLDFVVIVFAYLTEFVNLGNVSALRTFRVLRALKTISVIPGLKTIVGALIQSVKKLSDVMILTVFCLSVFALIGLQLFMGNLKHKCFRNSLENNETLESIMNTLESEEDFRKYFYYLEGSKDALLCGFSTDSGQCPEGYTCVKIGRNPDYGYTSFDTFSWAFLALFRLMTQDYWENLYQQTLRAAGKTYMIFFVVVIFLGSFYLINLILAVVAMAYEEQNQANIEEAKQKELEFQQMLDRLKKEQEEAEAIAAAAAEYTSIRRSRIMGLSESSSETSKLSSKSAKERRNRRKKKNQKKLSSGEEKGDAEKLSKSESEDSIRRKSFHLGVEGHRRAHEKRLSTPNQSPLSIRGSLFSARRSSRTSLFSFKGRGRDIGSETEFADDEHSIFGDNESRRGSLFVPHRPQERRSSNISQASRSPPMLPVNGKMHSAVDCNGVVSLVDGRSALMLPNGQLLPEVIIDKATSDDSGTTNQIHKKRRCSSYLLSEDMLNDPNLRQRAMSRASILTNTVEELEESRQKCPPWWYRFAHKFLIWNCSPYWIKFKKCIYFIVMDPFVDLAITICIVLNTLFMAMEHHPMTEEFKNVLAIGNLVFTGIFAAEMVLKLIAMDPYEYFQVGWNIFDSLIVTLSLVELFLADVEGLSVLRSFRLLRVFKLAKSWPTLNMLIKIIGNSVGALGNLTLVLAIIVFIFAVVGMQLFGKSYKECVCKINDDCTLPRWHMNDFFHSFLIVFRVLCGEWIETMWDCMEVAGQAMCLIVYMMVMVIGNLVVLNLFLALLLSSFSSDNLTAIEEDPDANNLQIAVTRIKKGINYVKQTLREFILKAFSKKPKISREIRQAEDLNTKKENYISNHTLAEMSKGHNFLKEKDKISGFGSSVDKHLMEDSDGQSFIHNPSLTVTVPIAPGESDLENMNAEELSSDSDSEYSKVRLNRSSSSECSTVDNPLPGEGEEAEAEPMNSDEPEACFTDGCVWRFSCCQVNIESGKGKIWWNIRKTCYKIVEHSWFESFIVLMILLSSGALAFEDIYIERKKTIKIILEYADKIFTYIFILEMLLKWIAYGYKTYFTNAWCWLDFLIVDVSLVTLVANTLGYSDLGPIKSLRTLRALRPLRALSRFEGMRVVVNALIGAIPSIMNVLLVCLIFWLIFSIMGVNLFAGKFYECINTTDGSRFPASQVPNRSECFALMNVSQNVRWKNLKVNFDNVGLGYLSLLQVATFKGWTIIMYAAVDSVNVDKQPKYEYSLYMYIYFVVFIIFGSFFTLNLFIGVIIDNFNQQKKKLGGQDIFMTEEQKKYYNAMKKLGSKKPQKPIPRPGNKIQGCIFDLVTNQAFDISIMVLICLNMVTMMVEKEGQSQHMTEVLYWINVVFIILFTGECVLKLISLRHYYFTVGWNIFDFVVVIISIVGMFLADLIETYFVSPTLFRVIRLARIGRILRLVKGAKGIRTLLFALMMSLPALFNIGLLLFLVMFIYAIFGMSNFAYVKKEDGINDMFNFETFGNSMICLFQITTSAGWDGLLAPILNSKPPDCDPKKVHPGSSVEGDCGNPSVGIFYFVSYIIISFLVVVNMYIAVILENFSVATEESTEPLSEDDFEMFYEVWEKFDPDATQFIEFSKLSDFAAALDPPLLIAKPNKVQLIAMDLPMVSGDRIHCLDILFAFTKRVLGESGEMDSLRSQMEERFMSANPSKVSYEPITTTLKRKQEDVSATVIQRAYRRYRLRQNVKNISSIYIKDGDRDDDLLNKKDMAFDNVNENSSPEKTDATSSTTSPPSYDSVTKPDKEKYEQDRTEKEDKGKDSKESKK

Row | IC50 [µM] | Compound
1 | 0.26 | Cn1nccc1-c1cc(Cl)ccc1Oc1ccc(S(=O)(=O)Nc2ncccn2)cc1C#N [Example 881, 4-[4-chloro-2-(1-methyl-1H-pyrazol-5-yl)phenoxy]-3-cyano-N-pyrimidin-2-ylbenzenesulfonamide]
2 | 0.04 | N#Cc1cc(S(=O)(=O)Nc2ncns2)ccc1Oc1ccc(Cl)cc1-c1ccnn1C1CCOC1 (stereo not shown) [Example 882, 4-{4-chloro-2-[1-(tetrahydrofuran-3-yl)-1H-pyrazol-5-yl]phenoxy}-3-cyano-N-1,2,4-thiadiazol-5-ylbenzenesulfonamide]
3 | 14 | Cc1cc(NS(=O)(=O)c2ccc(Oc3ccc(Cl)cc3-c3ccnn3C)c(C#N)c2)no1 [Example 883, 4-[4-chloro-2-(1-methyl-1H-pyrazol-5-yl)phenoxy]-3-cyano-N-(5-methylisoxazol-3-yl)benzenesulfonamide]
4 | 0.036 | CN1CC(n2nccc2-c2cc(Cl)ccc2Oc2cc(F)c(S(=O)(=O)Nc3nncs3)cc2Cl)C1 [Example 884, 5-chloro-4-{4-chloro-2-[1-(1-methylazetidin-3-yl)-1H-pyrazol-5-yl]phenoxy}-2-fluoro-N-1,3,4-thiadiazol-2-ylbenzenesulfonamide]
5 | 6.3 | Cn1nccc1-c1cc(Cl)ccc1Oc1ccc(S(=O)(=O)Nc2cnccn2)cc1C#N [Example 885, 4-[4-chloro-2-(1-methyl-1H-pyrazol-5-yl)phenoxy]-3-cyano-N-pyrazin-2-ylbenzenesulfonamide]
6 | 6.2 | CCOc1nnc(NS(=O)(=O)c2ccc(Oc3ccc(Cl)cc3-c3ccnn3C)c(C#N)c2)s1 [Example 886, 4-[4-chloro-2-(1-methyl-1H-pyrazol-5-yl)phenoxy]-3-cyano-N-(5-ethoxy-1,3,4-thiadiazol-2-yl)benzenesulfonamide]
7 | 9 | Cn1ccc(NS(=O)(=O)c2ccc(Oc3ccc(Cl)cc3-c3ccnn3C)c(C#N)c2)n1 [Example 887, 4-[4-chloro-2-(1-methyl-1H-pyrazol-5-yl)phenoxy]-3-cyano-N-(1-methyl-1H-pyrazol-3-yl)benzenesulfonamide]
8 | 0.92 | Cc1nnc(NS(=O)(=O)c2ccc(Oc3ccc(Cl)cc3-c3ccnn3C)c(C#N)c2)s1 [Example 888, 4-[4-chloro-2-(1-methyl-1H-pyrazol-5-yl)phenoxy]-3-cyano-N-(5-methyl-1,3,4-thiadiazol-2-yl)benzenesulfonamide]
9 | 0.67 | N#Cc1cc(S(=O)(=O)Nc2ncns2)ccc1Oc1ccc(F)cc1-c1cocn1 [Example 889, 3-cyano-4-[4-fluoro-2-(1,3-oxazol-4-yl)phenoxy]-N-1,2,4-thiadiazol-5-ylbenzenesulfonamide]
10 | 0.78 | CSc1nnc(NS(=O)(=O)c2ccc(Oc3ccc(Cl)cc3-c3ccnn3C)c(C#N)c2)s1 [Example 891, 4-[4-chloro-2-(1-methyl-1H-pyrazol-5-yl)phenoxy]-3-cyano-N-[5-(methylthio)-1,3,4-thiadiazol-2-yl]benzenesulfonamide]
11 | >10 | Cc1cnc(NS(=O)(=O)c2ccc(Oc3ccc(Cl)cc3-c3ccnn3C)c(C#N)c2)cn1 [Example 892, 4-[4-chloro-2-(1-methyl-1H-pyrazol-5-yl)phenoxy]-3-cyano-N-(5-methylpyrazin-2-yl)benzenesulfonamide]
12 | 3.8 | CSc1nc(NS(=O)(=O)c2ccc(Oc3ccc(Cl)cc3-c3ccnn3C)c(C#N)c2)ns1 [Example 893, 4-[4-chloro-2-(1-methyl-1H-pyrazol-5-yl)phenoxy]-3-cyano-N-[5-(methylthio)-1,2,4-thiadiazol-3-yl]benzenesulfonamide]
13 | >10 | Cn1nccc1NS(=O)(=O)c1ccc(Oc2ccc(Cl)cc2-c2ccnn2C)c(C#N)c1 [Example 894, 4-[4-chloro-2-(1-methyl-1H-pyrazol-5-yl)phenoxy]-3-cyano-N-(1-methyl-1H-pyrazol-5-yl)benzenesulfonamide]
14 | >30 | Cn1nccc1-c1cc(Cl)ccc1Oc1ccc(S(=O)(=O)Nc2cncnc2)cc1C#N [Example 895, 4-[4-chloro-2-(1-methyl-1H-pyrazol-5-yl)phenoxy]-3-cyano-N-pyrimidin-5-ylbenzenesulfonamide]
15 | 0.34 | N#Cc1cc(S(=O)(=O)Nc2ncns2)ccc1Oc1ccc(Cl)cc1-c1cc(N2CCOCC2)ncn1 [Example 896, 4-[4-chloro-2-(6-morpholin-4-ylpyrimidin-4-yl)phenoxy]-3-cyano-N-1,2,4-thiadiazol-5-ylbenzenesulfonamide]
16 | 0.0058 | O=S(=O)(Nc1ncns1)c1cc(F)c(Oc2ccc(OC(F)(F)F)cc2-c2ccnnc2)cc1F [Example 897, 2,5-difluoro-4-[2-pyridazin-4-yl-4-(trifluoromethoxy)phenoxy]-N-1,2,4-thiadiazol-5-ylbenzenesulfonamide]
17 | 0.0051 | O=S(=O)(Nc1ncns1)c1ccc(Oc2ccc(Cl)cc2-c2ccnnc2)c(Cl)c1 [Example 898, 3-chloro-4-(4-chloro-2-pyridazin-4-ylphenoxy)-N-1,2,4-thiadiazol-5-ylbenzenesulfonamide]
18 | 0.018 | N#Cc1cc(S(=O)(=O)Nc2nncs2)ccc1Oc1ccc(Cl)cc1-c1ccnc(N2CCOCC2)c1 [Example 899, 4-[4-chloro-2-(2-morpholin-4-ylpyridin-4-yl)phenoxy]-3-cyano-N-1,3,4-thiadiazol-2-ylbenzenesulfonamide]
19 | 0.0028 | O=S(=O)(Nc1ncns1)c1ccc(Oc2ccc(OC(F)(F)F)cc2-c2ccnnc2)c(Cl)c1 [Example 900, 3-chloro-4-[2-pyridazin-4-yl-4-(trifluoromethoxy)phenoxy]-N-1,2,4-thiadiazol-5-ylbenzenesulfonamide]
20 | 0.0023 | N#Cc1cc(S(=O)(=O)Nc2ncns2)ccc1Oc1ccc(Cl)cc1-c1ccnc(NC2CCC2)c1 [Example 902, 4-{4-chloro-2-[2-(cyclobutylamino)pyridin-4-yl]phenoxy}-3-cyano-N-1,2,4-thiadiazol-5-ylbenzenesulfonamide]
21 | 0.39 | O=S(=O)(Nc1ncns1)c1cc(F)c(Oc2ccc(C(F)(F)F)cc2-c2ccc(Cl)nn2)cc1F [Example 904, 4-[2-(6-chloropyridazin-3-yl)-4-(trifluoromethyl)phenoxy]-2,5-difluoro-N-1,2,4-thiadiazol-5-ylbenzenesulfonamide]
22 | 0.19 | N#Cc1cc(S(=O)(=O)Nc2ncns2)ccc1Oc1ccc(Cl)cc1-c1ccsn1 [Example 905, 4-(4-chloro-2-isothiazol-3-ylphenoxy)-3-cyano-N-1,2,4-thiadiazol-5-ylbenzenesulfonamide]
23 | 0.057 | N#Cc1cc(S(=O)(=O)Nc2ncns2)ccc1Oc1ccc(Cl)cc1C1CNC1 [Example 906, 4-(2-azetidin-3-yl-4-chlorophenoxy)-3-cyano-N-1,2,4-thiadiazol-5-ylbenzenesulfonamide]
24 | >10 | Cc1nonc1NS(=O)(=O)c1ccc(Oc2ccc(Cl)cc2-c2ccnn2C)c(C#N)c1 [Example 907, 4-[4-chloro-2-(1-methyl-1H-pyrazol-5-yl)phenoxy]-3-cyano-N-(4-methyl-1,2,5-oxadiazol-3-yl)benzenesulfonamide]
25 | 0.78 | Cn1cc(-c2cc(Cl)ccc2Oc2ccc(S(=O)(=O)Nc3ncns3)cc2C#N)ccc1=O [Example 908, 4-[4-chloro-2-(1-methyl-6-oxo-1,6-dihydropyridin-3-yl)phenoxy]-3-cyano-N-1,2,4-thiadiazol-5-ylbenzenesulfonamide]
